Several values for one entry are separate records, joined by “and”; a condition that tells them apart may be missing. Equal entries are not always repeated. Toxic doses and inconclusive results are not listed. Rule for the calls: active = survival T/C of 150% or more; inactive = T/C below 125% in these data.
Tested on: CD2F1 mice, L1210 leukemia ip, survival T/C
Experiment: NCI In Vivo Anticancer Drug Screen. Data for tumor model L1210 Leukemia (intraperitoneal) in CD2F1 (CDF1) mice
Settings: higher = longer survival
In short: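 Compound-dosed mice with transplantable tumor versus matched vehicle controls; endpoint ratio T/C reported.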

[1] = endpoint: mean survival time, dose: 12.5 mg/kg/injection, schedule: Q01DX009 (ip), vehicle: saline with Tween-80
[2] = endpoint: mean survival time, dose: 25.0 mg/kg/injection, schedule: Q01DX009 (ip), vehicle: saline with Tween-80
[3] = endpoint: mean survival time, dose: 200.0 mg/kg/injection, schedule: Q01DX009 (ip), vehicle: saline with Tween-80
[4] = endpoint: mean survival time, dose: 100.0 mg/kg/injection, schedule: Q04DX003 (ip), vehicle: saline with Tween-80
[5] = endpoint: mean survival time, dose: 200.0 mg/kg/injection, schedule: Q04DX003 (ip), vehicle: saline with Tween-80
[6] = endpoint: mean survival time, dose: 400.0 mg/kg/injection, schedule: Q04DX003 (ip), vehicle: saline with Tween-80

Measured: T/C

O=c1[nH]c(=O)n(C2OC3COC2C3O)cc1F (stereo not given)
inactive: endpoint: median survival time, dose: 12.5 mg/kg/injection, schedule: Q01DX005 (ip), vehicle: saline with Tween-80 101 % of control | endpoint: median survival time, dose: 25.0 mg/kg/injection, schedule: Q01DX005 (ip), vehicle: saline with Tween-80 106 % of control | endpoint: median survival time, dose: 50.0 mg/kg/injection, schedule: Q01DX005 (ip), vehicle: saline with Tween-80 102 % of control | endpoint: median survival time, dose: 100.0 mg/kg/injection, schedule: Q01DX005 (ip), vehicle: saline with Tween-80 97 % of control | endpoint: median survival time, dose: 200.0 mg/kg/injection, schedule: Q01DX005 (ip), vehicle: saline with Tween-80 96 % of control

c1ccc(N=C(C(=Nc2ccccc2)c2ccccn2)c2cccnc2)cc1
inactive: endpoint: mean survival time, dose: 100.0 mg/kg/injection, schedule: Q01DX001 (ip), vehicle: Klucel (hydroxypropylcellulose) (HPC) 93 % of control | endpoint: mean survival time, dose: 200.0 mg/kg/injection, schedule: Q01DX001 (ip), vehicle: Klucel (hydroxypropylcellulose) (HPC) 103 % of control | endpoint: mean survival time, dose: 400.0 mg/kg/injection, schedule: Q01DX001 (ip), vehicle: Klucel (hydroxypropylcellulose) (HPC) 100 % of control

COC(=O)Nc1nc2ccc(C3(c4ccc(F)cc4)OCCO3)cc2[nH]1
active: endpoint: mean survival time, dose: 60.0 mg/kg/injection, schedule: Q04DX003 (ip), vehicle: saline 151 % of control and 152 % of control | endpoint: mean survival time, dose: 80.0 mg/kg/injection, schedule: Q04DX003 (ip), vehicle: saline 181 % of control | endpoint: mean survival time, dose: 100.0 mg/kg/injection, schedule: Q04DX003 (ip), vehicle: saline 181 % of control | endpoint: mean survival time, dose: 150.0 mg/kg/injection, schedule: Q01DX009 (oral), vehicle: saline 156 % of control | endpoint: mean survival time, dose: 200.0 mg/kg/injection, schedule: Q01DX009 (oral), vehicle: saline 156 % of control
inactive: endpoint: mean survival time, dose: 1.56 mg/kg/injection, schedule: Q01DX009 (ip), vehicle: saline 96 % of control | endpoint: mean survival time, dose: 3.12 mg/kg/injection, schedule: Q01DX009 (ip), vehicle: saline 91 % of control | endpoint: mean survival time, dose: 6.25 mg/kg/injection, schedule: Q01DX009 (ip), vehicle: saline 90 % of control | [1] 104 % of control | endpoint: mean survival time, dose: 12.5 mg/kg/injection, schedule: Q01DX009 (ip), vehicle: saline 94 % of control and 104 % of control | [2] 106 % of control | endpoint: mean survival time, dose: 25.0 mg/kg/injection, schedule: Q01DX009 (ip), vehicle: saline 105 % of control | endpoint: mean survival time, dose: 40.0 mg/kg/injection, schedule: Q04DX003 (ip), vehicle: saline 120 % of control | endpoint: mean survival time, dose: 50.0 mg/kg/injection, schedule: Q04DX003 (ip), vehicle: saline 115 % of control | [3] 87 % of control

Nc1cnc2nc(N)[nH]c(=O)c2c1
inactive: endpoint: mean survival time, dose: 100.0 mg/kg/injection, schedule: Q01DX009 (ip), vehicle: saline sonified 97 % of control | [4] 93 % of control | endpoint: mean survival time, dose: 200.0 mg/kg/injection, schedule: Q01DX009 (ip), vehicle: saline sonified 102 % of control | [5] 93 % of control | endpoint: mean survival time, dose: 400.0 mg/kg/injection, schedule: Q01DX009 (ip), vehicle: saline sonified 93 % of control | [6] 95 % of control

O=[N+]([O-])c1ccc(C(Cl)S(=O)(=O)c2ccccc2)cc1 (stereo not given)
inactive: endpoint: mean survival time, dose: 100.0 mg/kg/injection, schedule: Q01DX009 (ip), vehicle: Klucel (hydroxypropylcellulose) (HPC) 98 % of control | endpoint: mean survival time, dose: 200.0 mg/kg/injection, schedule: Q01DX009 (ip), vehicle: Klucel (hydroxypropylcellulose) (HPC) 92 % of control | endpoint: mean survival time, dose: 400.0 mg/kg/injection, schedule: Q01DX009 (ip), vehicle: Klucel (hydroxypropylcellulose) (HPC) 110 % of control

C[N+](C)(C)CCC[n+]1ccc(CCn2ccc3ccccc32)cc1
inactive: endpoint: mean survival time, dose: 100.0 mg/kg/injection, schedule: Q01DX001 (ip), vehicle: saline 124 % of control

S=C(Sc1ccccc1)Sc1ccccc1
inactive: endpoint: mean survival time, dose: 100.0 mg/kg/injection, schedule: Q01DX009 (ip), vehicle: saline with Tween-80 88 % of control | [4] 92 % of control | [3] 95 % of control | [5] 103 % of control | endpoint: mean survival time, dose: 400.0 mg/kg/injection, schedule: Q01DX009 (ip), vehicle: saline with Tween-80 91 % of control | [6] 104 % of control

C[C@]1(O)CC[C@H]2[C@@H]3CCC4=CC(=O)CC[C@]4(C)[C@@]3(Cl)[C@@H](O)C[C@@]21C
inactive: endpoint: mean survival time, dose: 100.0 mg/kg/injection, schedule: Q04DX003 (ip), vehicle: saline sonified 101 % of control | endpoint: mean survival time, dose: 176.0 mg/kg/injection, schedule: Q04DX003 (ip), vehicle: saline with Tween-80 91 % of control | endpoint: mean survival time, dose: 200.0 mg/kg/injection, schedule: Q04DX003 (ip), vehicle: saline sonified 107 % of control | endpoint: mean survival time, dose: 264.0 mg/kg/injection, schedule: Q04DX003 (ip), vehicle: saline with Tween-80 96 % of control | [6] 94 % of control

O=C(NNC(=O)NC1OCC(O)C(O)C1O)Nc1ccccc1 (stereo not given)
inactive: [4] 101 % of control | [5] 98 % of control | [6] 98 % of control

CC(C)(CBr)COC(=O)Nc1cccc2ccccc12
inactive: [1] 91 % of control | [2] 91 % of control | endpoint: mean survival time, dose: 50.0 mg/kg/injection, schedule: Q01DX009 (ip), vehicle: saline with Tween-80 95 % of control

— PubChem BioAssay AID256 (DTP/NCI, 2004)
